Tested on: peripheral blood mononuclear cells (PBMC)
Assay: Microarray analysis (Human Exon 1.0 ST Array) of gene expression in PBMC
Type: cell-based
Details: vs untreated group
Text: Since it is not easy to obtain a cancer tissue clinically, the measurement of the marker in hemocytes readily obtainable in peripheral blood would be more useful. It was then examined whether the marker gene obtained in cancer cells could change in peripheral mononuclear cells in a similar manner as observed in the cancer cells. Specifically peripheral blood was taken from three normal individuals (volunteers) and peripheral mononuclear cells were purified and treated with (8E,12E,14E)-7-((4-Cycloheptylpiperazin-1-yl)carbonyl)oxy-3,6,16,21-tetrahydroxy-6,10,12,16,20-pentamethyl-18,19-epoxytricosa-8,12,14-trien-11-olide for six hours, followed by measurement of change in expression of the gene by a microarray (Human Exon 1.0 ST Array: Affymetrix).
Ficoll-Paque PLUS solution (Amersham, 17-1440-02) was slowly added to the blood taken (with heparin added) from healthy individuals to form a layer underneath the blood (15 ml of Ficoll-Paque PLUS solution was added to 25 ml of blood). After the mixture was centrifuged at 1500 rpm for 30 min, the upper part containing platelets was removed and then a layer containing mononuclear cells was transferred to another tube. The cells were suspended in PBS and centrifuged at 1500 rpm for 5 min, followed by removal of the supernatant. After these steps were repeated twice, the cells were again suspended in RPMI1640 (containing 10% FBS, penicillin, and streptomycin) and the number of the cells was then counted.
PBMC was suspended in RPMI1640 medium (containing 10% FBS, penicillin, and streptomycin) to 5×10^6 cells/ml and 1 ml of the suspension was plated per well of a 24-well plate. Immediately, 111 μl of 10 times-concentrated (8E,12E,14E)-7-((4-Cycloheptylpiperazin-1-yl)carbonyl)oxy-3,6,16,21-tetrahydroxy-6,10,12,16,20-pentamethyl-18,19-epoxytricosa-8,12,14-trien-11-olide was added to the well (six wells per each concentration tested). The cells were then cultured in an incubator with 5% carbon dioxide gas at 37° C. Three hours later, the supernatant was collected and centrifuged at 1500 rpm for five minutes. TRI reagent (SIGMA) (1 ml) was added to each well of the plate from which the supernatant was removed to harvest the cells, which was added to the centrifuged pellet to dissolve. RNA was purified in accordance with the protocol of TRI reagent. RNA was further purified using RNeasy (QIAGEN) and, in accordance with the protocol, DNase I was added to the samples during the procedure. Absorbance at 260 nm was measured to quantify an amount of RNA.
Ribosomal RNA was removed from 1 μg of each RNA by using RiboMinus Human/Mouse Transcriptome Isolation Kit (Invitrogen). Single stranded cDNA synthesis, double stranded cDNA synthesis, cRNA synthesis, second single stranded cDNA synthesis, cDNA fragmentation, and cDNA labeling in order were carried out for total RNA from which ribosomal RNA was removed, using GeneChip Whole Transcript Sense Target Labeling and Control Reagents (Affymetrix) to make a cDNA probe. Subsequently, the cDNA probe was used for hybridization with Human Exon 1.0 ST Array (Affymetrix). The array was washed and stained, and luminescence intensity was measured by a scanner.
The expression level of the gene was quantified by using Expression Console Ver. 1.0 (Affymetrix) with Summarization Method and Normalization Method being set to “Median polish as used in RMA” and “None”, respectively.
Genes showing the change in the expression of the gene in both groups with the 10 nM treatment and the 30 nM treatment is, compared to that in the […], less than 25%; the expression level of the gene in the untreated group is more than 100; both P values of t-test for the 10 nM treated group and the untreated group, and for the 30 nM treated group and the untreated group are less than 5% were picked out. (Table 4). […]

## CCC(O)C(C)C1OC1CC(C)(O)/C=C/C=C(\C)C1OC(=O)CC(O)CCC(C)(O)C(OC(=O)N2CCN(C3CCCCCC3)CC2)/C=C/C1C (centres unmarked) [E7107, (8E,12E,14E)-7-((4-Cycloheptylpiperazin-1-yl)carbonyl)oxy-3,6,16,21-tetrahydroxy-6,10,12,16,20-pentamethyl-18,19-epoxytricosa-8,12,14-trien-11-olide]
10 nM
  Fold Change in expression level of ARFGAP3 (Transcript Cluster 3962587): 0.21
  Fold Change in expression level of C13orf31 (Transcript Cluster 3487600): 0.21
  Fold Change in expression level of CD274 (Transcript Cluster 3161082): 0.19
  Fold Change in expression level of CTSL1 (Transcript Cluster 3178147): 0.09
  Fold Change in expression level of DOCK4 (Transcript Cluster 3068097): 0.16
  Fold Change in expression level of ENG (Transcript Cluster 3226097): 0.24
  Fold Change in expression level of GK (Transcript Cluster 3972929): 0.19
  Fold Change in expression level of KMO (Transcript Cluster 2388085): 0.13
  Fold Change in expression level of KYNU (Transcript Cluster 2508520): 0.10
  Fold Change in expression level of LAIR1 (Transcript Cluster 3870824): 0.21
  Fold Change in expression level of NRIP3 (Transcript Cluster 3362159): 0.15
  Fold Change in expression level of OLR1 (Transcript Cluster 3444043): 0.09
  Fold Change in expression level of P2RX4 (Transcript Cluster 3434760): 0.22
  Fold Change in expression level of PIK3R5 (Transcript Cluster 3744680): 0.23
  Fold Change in expression level of PLA2G7 (Transcript Cluster 2955827): 0.12
  Fold Change in expression level of RCN1 (Transcript Cluster 3325503): 0.09
  Fold Change in expression level of SEMA6B (Transcript Cluster 3846860): 0.23
  Fold Change in expression level of SLAMF7 (Transcript Cluster 2363202): 0.15
  Fold Change in expression level of SLC7A11 (Transcript Cluster 2786322): 0.13
  Fold Change in expression level of SLC37A2 (Transcript Cluster 3354443): 0.21
  Fold Change in expression level of SLC41A2 (Transcript Cluster 3469180): 0.21
  Fold Change in expression level of SLC43A2 (Transcript Cluster 3740367): 0.22
  Fold Change in expression level of SLC43A3 (Transcript Cluster 3373845): 0.17
  Fold Change in expression level of STEAP4 (Transcript Cluster 3060332): 0.20
  Fold Change in expression level of TNFAIP6 (Transcript Cluster 2510464): 0.18
  Fold Change in expression level of TNFSF15 (Transcript Cluster 3222128): 0.10
  Fold Change in expression level of TRAF1 (Transcript Cluster 3223738): 0.19
  Fold Change in expression level of TRAPPC4 (Transcript Cluster 3351775): 0.23
30 nM
  Fold Change in expression level of ARFGAP3 (Transcript Cluster 3962587): 0.14
  Fold Change in expression level of C13orf31 (Transcript Cluster 3487600): 0.19
  Fold Change in expression level of CD274 (Transcript Cluster 3161082): 0.18
  Fold Change in expression level of CTSL1 (Transcript Cluster 3178147): 0.09
  Fold Change in expression level of DOCK4 (Transcript Cluster 3068097): 0.14
  Fold Change in expression level of ENG (Transcript Cluster 3226097): 0.20
  Fold Change in expression level of GK (Transcript Cluster 3972929): 0.21
  Fold Change in expression level of KMO (Transcript Cluster 2388085): 0.13
  Fold Change in expression level of KYNU (Transcript Cluster 2508520): 0.10
  Fold Change in expression level of LAIR1 (Transcript Cluster 3870824): 0.14
  Fold Change in expression level of NRIP3 (Transcript Cluster 3362159): 0.13
  Fold Change in expression level of OLR1 (Transcript Cluster 3444043): 0.04
  Fold Change in expression level of P2RX4 (Transcript Cluster 3434760): 0.22
  Fold Change in expression level of PIK3R5 (Transcript Cluster 3744680): 0.21
  Fold Change in expression level of PLA2G7 (Transcript Cluster 2955827): 0.15
  Fold Change in expression level of RCN1 (Transcript Cluster 3325503): 0.17
  Fold Change in expression level of SEMA6B (Transcript Cluster 3846860): 0.22
  Fold Change in expression level of SLAMF7 (Transcript Cluster 2363202): 0.14
  Fold Change in expression level of SLC7A11 (Transcript Cluster 2786322): 0.06
  Fold Change in expression level of SLC37A2 (Transcript Cluster 3354443): 0.23
  Fold Change in expression level of SLC41A2 (Transcript Cluster 3469180): 0.17
  Fold Change in expression level of SLC43A2 (Transcript Cluster 3740367): 0.18
  Fold Change in expression level of SLC43A3 (Transcript Cluster 3373845): 0.14
  Fold Change in expression level of STEAP4 (Transcript Cluster 3060332): 0.22
  Fold Change in expression level of TNFAIP6 (Transcript Cluster 2510464): 0.19
  Fold Change in expression level of TNFSF15 (Transcript Cluster 3222128): 0.07
  Fold Change in expression level of TRAF1 (Transcript Cluster 3223738): 0.17
  Fold Change in expression level of TRAPPC4 (Transcript Cluster 3351775): 0.21
